Data reported in the supplement of paper PMC13380429.

Key:
Conditions in all cases: 72 h
Calu-3 [1] = assay: relative viability EC50 (midpoint between 100% and the lowest measured viability); higher = less toxic
U2OS [2] = assay: cell viability relative to DMSO; higher = less toxic
Caco-2 [3] = assay: as above
HepG2 [4] = assay: as above
Calu-3 [5] = assay: as above
Vero E6 [6] = assay: as above
U2OS [7] = assay: drug sensitivity score (DSS) for viability; higher = more toxic; extreme values may be limits of the assay
Caco-2 [8] = assay: as above
HepG2 [9] = assay: as above
Calu-3 [10] = assay: as above
Vero E6 [11] = assay: as above
Caco-2 [12] = assay: relative viability EC50 (midpoint between 100% and the lowest measured viability); higher = less toxic
U2OS [13] = assay: as above
Vero E6 [14] = assay: as above

| SMILES | relative viability EC50 (Calu-3 [1]) [µM] | cell viability (U2OS [2]; 1 nM) [%] | cell viability (U2OS [2]; 10 nM) [%] | cell viability (U2OS [2]; 100 nM) [%] | cell viability (U2OS [2]; 1000 nM) [%] | cell viability (U2OS [2]; 10000 nM) [%] | cell viability (Caco-2 [3]; 1 nM) [%] | cell viability (Caco-2 [3]; 10 nM) [%] | cell viability (Caco-2 [3]; 100 nM) [%] | cell viability (Caco-2 [3]; 1000 nM) [%] | cell viability (Caco-2 [3]; 10000 nM) [%] | cell viability (HepG2 [4]; 1 nM) [%] | cell viability (HepG2 [4]; 10 nM) [%] | cell viability (HepG2 [4]; 100 nM) [%] | cell viability (HepG2 [4]; 1000 nM) [%] | cell viability (HepG2 [4]; 10000 nM) [%] | cell viability (Calu-3 [5]; 1 nM) [%] | cell viability (Calu-3 [5]; 10 nM) [%] | cell viability (Calu-3 [5]; 100 nM) [%] | cell viability (Calu-3 [5]; 1000 nM) [%] | cell viability (Calu-3 [5]; 10000 nM) [%] | cell viability (Vero E6 [6]; 1 nM) [%] | cell viability (Vero E6 [6]; 10 nM) [%] | cell viability (Vero E6 [6]; 100 nM) [%] | cell viability (Vero E6 [6]; 1000 nM) [%] | cell viability (Vero E6 [6]; 10000 nM) [%] | drug sensitivity score (U2OS [7]) | drug sensitivity score (Caco-2 [8]) | drug sensitivity score (HepG2 [9]) | drug sensitivity score (Calu-3 [10]) | drug sensitivity score (Vero E6 [11]) | relative viability EC50 (Caco-2 [12]) [µM] | relative viability EC50 (U2OS [13]) [µM] | relative viability EC50 (Vero E6 [14]) [µM] |
| --- | --- | --- | --- | --- | --- | --- | --- | --- | --- | --- | --- | --- | --- | --- | --- | --- | --- | --- | --- | --- | --- | --- | --- | --- | --- | --- | --- | --- | --- | --- | --- | --- | --- | --- |
| CC(C)(C)c1ccc(-c2nc3c(N4CCN(Cc5ccc6nccnc6c5)CC4)cccc3[nH]2)cc1 | > 10 | 92.8 | 101 | 93.4 | 99.2 | 54.8 | 109 | 91.7 | 90.3 | 100 | 59.7 | 98.3 | 96.5 | 94.4 | 97.7 | 66.9 | 104 | 104 | 111 | 106 | 92.1 | 102 | 105 | 103 | 95.6 | 64.5 | 2.4 | 2 | 1.9 | 0 | 2.4 |  |  |  |
| CCCCC1CCC(c2nc(-c3ccncc3)no2)CC1 (stereo not given) |  |  |  |  |  |  | 106 | 98.8 | 104 | 98.7 | 103 |  |  |  |  |  |  |  |  |  |  |  |  |  |  |  |  | 0 |  |  |  | > 10 |  |  |
| COc1cc(N)c(Cl)cc1C(=O)OCCCN1CCCCC1 | > 10 | 101 | 94.9 | 98.1 | 104 | 102 | 116 | 108 | 104 | 98.3 | 107 |  |  |  |  |  | 106 | 102 | 93.5 | 114 | 104 | 106 | 104 | 107 | 104 | 99.7 | 0 | 0 |  | 0 | 0 | > 10 | > 10 | > 10 |
| CS(=O)(=O)Nc1c(O)ccc2c1CCC[C@H]2C1=NCCN1 |  |  |  |  |  |  | 109 | 104 | 101 | 101 | 96.7 |  |  |  |  |  |  |  |  |  |  |  |  |  |  |  |  | 0 |  |  |  | > 10 |  |  |
| C[C@H](N/C(=N/C#N)Nc1cccc2ncccc12)c1ccccc1 | > 10 | 108 | 102 | 99.1 | 109 | 101 | 101 | 112 | 104 | 97.8 | 98.6 |  |  |  |  |  | 97 | 102 | 107 | 103 | 94.8 |  |  |  |  |  | 0 | 0 |  | 0 |  | > 10 | > 10 |  |
| Cc1cc2c(cc1C(F)(F)F)N(C(=O)Nc1ccc(Oc3cccnc3C)nc1)CC2 | > 10 | 101 | 106 | 95.8 | 105 | 95.4 | 97.3 | 101 | 104 | 97.1 | 91.2 |  |  |  |  |  | 96.4 | 98.8 | 96 | 104 | 80.6 |  |  |  |  |  | 0 | 0 |  | 0.4 |  | > 10 | > 10 |  |
| O=C1NC(=O)/C(=C/c2ccc3nccc(-c4ccncc4)c3c2)S1 | 1.94 | 96.1 | 95.5 | 100 | 91.7 | 37.9 | 92.9 | 96.2 | 89.3 | 95.5 | 36 | 95.1 | 105 | 94.9 | 93 | 53.8 | 103 | 101 | 97.8 | 89.1 | 31.4 | 93.6 | 99.1 | 89.9 | 90.5 | 53.5 | 4.8 | 4.2 | 3.6 | 5.6 | 3.9 | 2.6 | 2.09 |  |
| O=[N+]([O-])c1cc([N+](=O)[O-])c(/C=C/c2ccc(Cl)c(Cl)c2)cc1/C=C/c1ccc(Cl)c(Cl)c1 | > 10 | 68.7 | 102 | 94.8 | 110 | 94.1 | 91.4 | 97.2 | 89 | 102 | 86.3 |  |  |  |  |  | 100 | 98.5 | 87.2 | 97.6 | 95.9 | 103 | 105 | 101 | 102 | 97.3 | 0 | 0.1 |  | 0 | 0 | > 10 | > 10 | > 10 |
| CCNCCCNCCCCNCCCNCC [1,12-Besm] | > 10 | 102 | 96.1 | 96.6 | 89.5 | 79.1 | 103 | 86.3 | 96.5 | 91.7 | 61.8 | 104 | 104 | 106 | 86.7 | 50.5 | 95.6 | 110 | 110 | 102 | 86.7 | 101 | 104 | 99.4 | 97.5 | 70.5 | 1.3 | 3.2 | 4.7 | 0.1 | 1.7 |  | > 10 |  |
| O=c1[nH]cc(F)c(=O)[nH]1 [5-fluorouracil] | > 10 | 100 | 97.4 | 97.6 | 95.6 | 64 | 80 | 103 | 85.7 | 93.4 | 79.6 | 103 | 93 | 103 | 83.7 | 54.4 | 93.5 | 99.2 | 98.1 | 101 | 90.5 | 102 | 95.7 | 106 | 95.8 | 62.9 | 2.4 | 1.4 | 4.7 | 0 | 2.5 | > 10 |  |  |
| CCOC(=O)c1cc(C#N)c(N2CCC(C(=O)NS(=O)(=O)Cc3ccccc3)CC2)nc1C [AZD1283] | > 10 | 95.7 | 100 | 105 | 91.2 | 101 | 98.4 | 94.3 | 101 | 95.5 | 97 |  |  |  |  |  | 96.2 | 104 | 112 | 97.2 | 104 | 103 | 106 | 100 | 104 | 99.5 | 0 | 0 |  | 0 | 0 | > 10 | > 10 | > 10 |
| O=C(Nc1cccc(Nc2ncc(Br)c(NCCc3cnc[nH]3)n2)c1)N1CCCC1 [BX-912] | > 10 | 102 | 93.2 | 97.5 | 98.3 | 55.9 | 103 | 93.4 | 102 | 94.6 | 101 | 103 | 91.8 | 103 | 82.3 | 55.8 | 108 | 95.4 | 104 | 102 | 91.2 | 97.7 | 93.5 | 94.4 | 95.8 | 91.5 | 2.5 | 0 | 4.7 | 0 | 0 | > 10 |  | > 10 |
| CCCCCCCCCCCCCCOc1ccc(C(=O)O)o1 [KD-023] |  | 97.4 | 97.4 | 101 | 95.8 | 103 | 95 | 92.9 | 105 | 92.5 | 82.5 | 99.8 | 103 | 103 | 105 | 69.9 |  |  |  |  |  | 102 | 102 | 100 | 99 | 78.4 | 0 | 1.1 | 1 |  | 0.8 | > 10 | > 10 | > 10 |
| Cc1ccc(NC(=O)CCCCCC(=O)Nc2ccccc2N)cc1 [TC-H-106] |  | 101 | 96.4 | 98.4 | 95.7 | 80.3 | 103 | 97 | 97.6 | 96.2 | 81.9 | 99.7 | 109 | 98.9 | 93.4 | 57.3 | 98.5 | 99.7 | 92.9 | 87.4 | 59.4 | 105 | 102 | 98.2 | 102 | 77.6 | 1.1 | 0.9 | 3.3 | 3.4 | 0.6 | > 10 | > 10 | > 10 |
| CCCCNNC(=O)c1ccc(Br)cc1 [UF-010] |  | 100 | 104 | 100 | 99.8 | 70.2 | 99.5 | 91.9 | 92.8 | 101 | 84.3 | 106 | 94 | 105 | 88 | 61.5 | 101 | 98.2 | 96.8 | 95.6 | 64.2 | 104 | 98.9 | 101 | 102 | 69.6 | 1.3 | 0.3 | 3.6 | 2.4 | 1.2 | > 10 |  |  |
| COC(=O)C1=C(C)NC(C)=C(C(=O)O[C@H]2CCN(Cc3ccccc3)C2)[C@H]1c1cccc([N+](=O)[O-])c1 [barnidipine] | > 10 | 98.6 | 103 | 97.5 | 98.2 | 88.8 | 108 | 92.8 | 102 | 105 | 73.1 | 105 | 105 | 85.1 | 95.6 | 73.8 | 100 | 99.4 | 99.8 | 95.9 | 82.4 | 87.7 | 88.6 | 105 | 106 | 87.7 | 0.1 | 0.8 | 1.4 | 0.9 | 0 |  | > 10 | > 10 |
| O=C(c1ccccc1)C(O)c1ccccc1 (stereo not given) [benzoin] |  |  |  |  |  |  |  |  |  |  |  |  |  |  |  |  |  |  |  |  |  |  |  |  |  |  | 0 |  | 0.3 | 0 | 0 |  |  |  |
| CC(OC(=O)OC1CCCCC1)OC(=O)C1=C(CSc2nnnn2CCN(C)C)CS[C@@H]2[C@H](NC(=O)Cc3csc(N)n3)C(=O)N12 (stereo not given in full) [cefotiam-cilexetil] | > 10 | 96.5 | 102 | 98.4 | 99.5 | 94.8 | 82.3 | 93.3 | 96.8 | 113 | 117 |  |  |  |  |  | 96.4 | 90 | 99.1 | 96.9 | 109 |  |  |  |  |  | 0 | 0 |  | 0 |  | > 10 | > 10 |  |
